Laboratory results: US9163256B2, “Mutant receptors and their use in a nuclear receptor-based inducible gene expression system” (priority 2004, dated 2015)

Legend:
Experiment in all cases: GAL4-driven luciferase reporter assay in NIH3T3 cells
Assay type in all cases: cell-based
CfEcR-DEF mutant T52G = CfEcR-DEF mutant T52G (Choristoneura fumiferana, UniProt O77255, T335G); settings: for Emax: NIH3T3, 40 h, read-out: Rel Max FI
Experimental: (§1) This construct was prepared in the same way as in switch 1.1 above except wild-type CfEcR-DEF was replaced with mutant CfEcR-DEF comprising a ligand binding domain comprising a substitution mutation selected from Table 1 below.
(§2) DNAs were transfected into mouse NIH3T3 cells (ATCC) as follows. Standard methods for culture and maintenance of the cells were followed. Cells were harvested and plated 96-well plates at 2,500 cells per well, in 50 μL of growth medium containing 10% fetal bovine serum (FBS). Twenty-four hours later, the cells were treated with 35 μL of serum-free growth medium containing either dimethylsulfoxide (DMSO; control) or a DMSO solution of ligand. The cells were then transfected using Superfect (Qiagen Inc.) transfection reagent. For each well, 0.625 μL of Superfect was mixed with 14.2 μL of serum-free growth medium. 0.16 μg of reporter construct and 0.04 μg of each receptor construct were added to the transfection reagent mix. The contents of the transfection mix were mixed in a vortex mixer and let stand at room temperature for 30 minutes. At the end of incubation, 15 μL of transfection mix was added to the cells. The cells were maintained at 37° C. and 5% CO2 for 48 hours in 5% FBS.
(§3) Reporter Assays: Cells were harvested 40 hours after adding ligands. 125 μL of passive lysis buffer (part of Dual-Luciferase reporter assay system from Promega Corporation) were added to each well of the […] plate. The plates were placed on a rotary shaker for 15 minutes. Twenty μL of lysate were assayed. Luciferase activity was measured using Dual-Luciferase reporter assay system from Promega Corporation following the manufacturer's instructions. Fold induction (FI) activities were calculated by dividing relative light units (“RLU”) in ligand treated cells with RLU in DMSO treated cells (untreated control).

CfEcR-DEF mutant T52R = CfEcR-DEF mutant T52R (Choristoneura fumiferana, UniProt O77255, T335R); settings: for Emax: NIH3T3, 40 h, read-out: Rel Max FI
Experimental: as §1, §2, §3

CfEcR-DEF mutant M125G = CfEcR-DEF mutant M125G (Choristoneura fumiferana, UniProt O77255, M408G)
Experimental: as §1, §2, §3

CfEcR-DEF mutant M219Y = CfEcR-DEF mutant M219Y (Choristoneura fumiferana, UniProt O77255, M502Y); settings: for Emax: NIH3T3, 40 h, read-out: Rel Max FI
Experimental: as §1, §2, §3

CfEcR-DEF mutant F48K = CfEcR-DEF mutant F48K (Choristoneura fumiferana, UniProt O77255, F331K); settings: for Emax: NIH3T3, 40 h, read-out: Rel Max FI
Experimental: as §1, §2, §3

CfEcR-DEF mutant L223K = CfEcR-DEF mutant L223K (Choristoneura fumiferana, UniProt O77255, L506K); settings: for Emax: NIH3T3, 40 h, read-out: Rel Max FI
Experimental: as §1, §2, §3

CfEcR-DEF mutant L132E = CfEcR-DEF mutant L132E (Choristoneura fumiferana, UniProt O77255, L415E); settings: for Emax: NIH3T3, 40 h, read-out: Rel Max FI
Experimental: as §1, §2, §3

CfEcR-DEF mutant T52Q = CfEcR-DEF mutant T52Q (Choristoneura fumiferana, UniProt O77255, T335Q); settings: for Emax: NIH3T3, 40 h, read-out: Rel Max FI
Experimental: as §1, §2, §3

CfEcR-DEF mutant W238L = CfEcR-DEF mutant W238L (Choristoneura fumiferana, UniProt O77255, W521L); settings: for Emax: NIH3T3, 40 h, read-out: Rel Max FI
Experimental: as §1, §2, §3

CfEcR-DEF mutant M219K = CfEcR-DEF mutant M219K (Choristoneura fumiferana, UniProt O77255, M502K); settings: for Emax: NIH3T3, 40 h, read-out: Rel Max FI
Experimental: as §1, §2, §3

CfEcR-DEF mutant W238M = CfEcR-DEF mutant W238M (Choristoneura fumiferana, UniProt O77255, W521M); settings: for Emax: NIH3T3, 40 h, read-out: Rel MaxFI
Experimental: as §1, §2, §3

CfEcR-DEF mutant F48R = CfEcR-DEF mutant F48R (Choristoneura fumiferana, UniProt O77255, F331R); settings: for Emax: NIH3T3, 40 h, read-out: Rel Max FI
Experimental: as §1, §2, §3

CfEcR-DEF mutant M219A = CfEcR-DEF mutant M219A (Choristoneura fumiferana, UniProt O77255, M502A); settings: for Emax: NIH3T3, 40 h, read-out: Rel Max FI
Experimental: as §1, §2, §3

CfEcR-DEF mutant T52M = CfEcR-DEF mutant T52M (Choristoneura fumiferana, UniProt O77255, T335M); settings: for Emax: NIH3T3, 40 h, read-out: Rel MaxFI
Experimental: as §1, §2, §3

CfEcR-DEF mutant M219W = CfEcR-DEF mutant M219W (Choristoneura fumiferana, UniProt O77255, M502W); settings: for Emax: NIH3T3, 40 h, read-out: Rel Max FI
Experimental: as §1, §2, §3

CfEcR-DEF mutant L223Y = CfEcR-DEF mutant L223Y (Choristoneura fumiferana, UniProt O77255, L506Y); settings: for Emax: NIH3T3, 40 h, read-out: Rel Max FI
Experimental: as §1, §2, §3

CfEcR-DEF mutant L234R = CfEcR-DEF mutant L234R (Choristoneura fumiferana, UniProt O77255, L517R); settings: for Emax: NIH3T3, 40 h, read-out: Rel Max FI
Experimental: as §1, §2, §3

CfEcR-DEF mutant M125N = CfEcR-DEF mutant M125N (Choristoneura fumiferana, UniProt O77255, M408N)
Experimental: as §1, §2, §3

CfEcR-DEF mutant T52W = CfEcR-DEF mutant T52W (Choristoneura fumiferana, UniProt O77255, T335W)
Experimental: as §1, §2, §3

CfEcR-DEF mutant I51M = CfEcR-DEF mutant I51M (Choristoneura fumiferana, UniProt O77255, I334M); settings: for Emax: NIH3T3, 40 h, read-out: Rel Max FI
Experimental: as §1, §2, §3

CfEcR-DEF mutant M125S = CfEcR-DEF mutant M125S (Choristoneura fumiferana, UniProt O77255, M408S)
Experimental: as §1, §2, §3

CfEcR-DEF mutant L234W = CfEcR-DEF mutant L234W (Choristoneura fumiferana, UniProt O77255, L517W); settings: for Emax: NIH3T3, 40 h, read-out: Rel Max FI
Experimental: as §1, §2, §3

CfEcR-DEF mutant M125I = CfEcR-DEF mutant M125I (Choristoneura fumiferana, UniProt O77255, M408I); settings: for Emax: NIH3T3, 40 h, read-out: Rel Max FI
Experimental: as §1, §2, §3

CfEcR-DEF mutant M125V = CfEcR-DEF mutant M125V (Choristoneura fumiferana, UniProt O77255, M408V); settings: for Emax: NIH3T3, 40 h, read-out: Rel Max FI
Experimental: as §1, §2, §3

CfEcR-DEF mutant L223R = CfEcR-DEF mutant L223R (Choristoneura fumiferana, UniProt O77255, L506R); settings: for Emax: NIH3T3, 40 h, read-out: Rel Max FI
Experimental: as §1, §2, §3

CfEcR-DEF mutant F48K, sequence (O77255 entry or part of it F331K): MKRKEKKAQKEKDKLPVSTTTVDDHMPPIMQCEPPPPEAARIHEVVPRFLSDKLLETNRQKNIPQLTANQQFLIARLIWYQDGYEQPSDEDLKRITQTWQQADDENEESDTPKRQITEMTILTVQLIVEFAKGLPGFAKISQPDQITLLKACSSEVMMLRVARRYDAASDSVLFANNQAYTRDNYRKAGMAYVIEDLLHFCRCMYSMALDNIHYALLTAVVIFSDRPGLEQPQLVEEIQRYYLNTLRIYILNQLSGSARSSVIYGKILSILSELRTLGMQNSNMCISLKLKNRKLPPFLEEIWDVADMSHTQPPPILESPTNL
CfEcR-DEF mutant F48K, sequence (P28702 299-449, further chain): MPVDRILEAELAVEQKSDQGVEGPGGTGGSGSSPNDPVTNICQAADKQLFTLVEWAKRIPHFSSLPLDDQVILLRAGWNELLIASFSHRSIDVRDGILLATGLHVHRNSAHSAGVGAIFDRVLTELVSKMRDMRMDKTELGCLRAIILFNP
CfEcR-DEF mutant L234R, sequence (O77255 entry or part of it L517R): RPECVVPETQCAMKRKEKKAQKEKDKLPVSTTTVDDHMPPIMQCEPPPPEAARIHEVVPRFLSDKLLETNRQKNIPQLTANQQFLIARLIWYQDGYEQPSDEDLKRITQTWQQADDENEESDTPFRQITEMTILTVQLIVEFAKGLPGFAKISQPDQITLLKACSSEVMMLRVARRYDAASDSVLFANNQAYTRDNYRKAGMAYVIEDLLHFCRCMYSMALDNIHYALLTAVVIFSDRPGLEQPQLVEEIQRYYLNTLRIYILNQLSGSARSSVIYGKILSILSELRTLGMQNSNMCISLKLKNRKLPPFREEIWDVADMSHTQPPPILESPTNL
CfEcR-DEF mutant L234R, sequence (P28702 299-449, further chain): as the sequence (P28702 299-449, further chain) above
CfEcR-DEF mutant M125V, sequence (O77255 entry or part of it M408V): as the sequence (O77255 entry or part of it F331K) above, with K113F, M190V counted along it
CfEcR-DEF mutant M125V, sequence (P28702 299-449, further chain): as the sequence (P28702 299-449, further chain) above
CfEcR-DEF mutant M219A, sequence (O77255 entry or part of it M502A): as the sequence (O77255 entry or part of it L517R) above, with M296A, R311L counted along it
CfEcR-DEF mutant M219A, sequence (P28702 299-449, further chain): as the sequence (P28702 299-449, further chain) above
CfEcR-DEF mutant T52W, sequence (O77255 entry or part of it T335W): as the sequence (O77255 entry or part of it F331K) above, with K113F, T117W counted along it
CfEcR-DEF mutant T52W, sequence (P28702 299-449, further chain): as the sequence (P28702 299-449, further chain) above
CfEcR-DEF mutant F48R, sequence (O77255 entry or part of it F331R): as the sequence (O77255 entry or part of it L517R) above, with F125R, R311L counted along it
CfEcR-DEF mutant F48R, sequence (P28702 299-449, further chain): as the sequence (P28702 299-449, further chain) above
CfEcR-DEF mutant L234W, sequence (O77255 entry or part of it L517W): as the sequence (O77255 entry or part of it L517R) above, with R311W counted along it
CfEcR-DEF mutant L234W, sequence (P28702 299-449, further chain): as the sequence (P28702 299-449, further chain) above
CfEcR-DEF mutant L223R, sequence (O77255 entry or part of it L506R): as the sequence (O77255 entry or part of it F331K) above, with K113F, L288R counted along it
CfEcR-DEF mutant L223R, sequence (P28702 299-449, further chain): as the sequence (P28702 299-449, further chain) above
CfEcR-DEF mutant L223K, sequence (P28702 298-449): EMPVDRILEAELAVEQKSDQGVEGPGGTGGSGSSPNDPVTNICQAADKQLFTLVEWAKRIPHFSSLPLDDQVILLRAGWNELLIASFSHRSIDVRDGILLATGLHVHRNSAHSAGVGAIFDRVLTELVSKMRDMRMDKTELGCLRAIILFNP
CfEcR-DEF mutant L223K, sequence (O77255 entry or part of it L506K): as the sequence (O77255 entry or part of it L517R) above, with L300K, R311L counted along it

Compound CCCCC(N(NC(=O)c1ccc(CC)cc1)C(=O)c1cc(C)cc(C)c1)C(C)(C)C (centres unmarked) [RG-115840, 3,5-dimethyl-benzoic acid N-(1-tert-butyl-pentyl)-N′-(4-ethyl-benzoyl)-hydrazide] has an EC50 (CfEcR-DEF mutant T52G) of 3.61 µM, an Emax (CfEcR-DEF mutant T52G) of 23% and an EC50 (CfEcR-DEF mutant T52R) of over 33 µM. It also gave an Emax (CfEcR-DEF mutant T52R) of 2%, an EC50 (CfEcR-DEF mutant M125G) of 2.97 µM and an EC50 (CfEcR-DEF mutant M219Y) of 1 µM. The Emax (CfEcR-DEF mutant M219Y) was 68%, the EC50 (CfEcR-DEF mutant F48K) was 3.76 µM and the Emax (CfEcR-DEF mutant F48K) was 18%. The EC50 (CfEcR-DEF mutant L223K) was 1 µM, the Emax (CfEcR-DEF mutant L223K) was 93% and the EC50 (CfEcR-DEF mutant L132E) was 1.67 µM. The Emax (CfEcR-DEF mutant L132E) was 156%, the EC50 (CfEcR-DEF mutant T52Q) was 2 µM and the Emax (CfEcR-DEF mutant T52Q) was 34%. The EC50 (CfEcR-DEF mutant W238L) was 2 µM, the Emax (CfEcR-DEF mutant W238L) was 41% and the EC50 (CfEcR-DEF mutant M219K) was over 33 µM. The Emax (CfEcR-DEF mutant M219K) was 1%, the EC50 (CfEcR-DEF mutant W238M) was 2 µM and the Emax (CfEcR-DEF mutant W238M) was 41%. It also gave an EC50 (CfEcR-DEF mutant F48R) of 3.58 µM, an Emax (CfEcR-DEF mutant F48R) of 265% and an EC50 (CfEcR-DEF mutant M219A) of 2.87 µM. For the same compound, the Emax (CfEcR-DEF mutant M219A) was 60%, the EC50 (CfEcR-DEF mutant T52M) was 5 µM and the Emax (CfEcR-DEF mutant T52M) was 15%. For the same compound, the EC50 (CfEcR-DEF mutant M219W) was 2.33 µM, the Emax (CfEcR-DEF mutant M219W) was 39% and the EC50 (CfEcR-DEF mutant L223Y) was 0.58 µM. The Emax (CfEcR-DEF mutant L223Y) was 142%, the EC50 (CfEcR-DEF mutant L234R) was 20 µM and the Emax (CfEcR-DEF mutant L234R) was 224%. For the same compound, the EC50 (CfEcR-DEF mutant M125N) was 3.3 µM, the EC50 (CfEcR-DEF mutant T52W) was 4.07 µM and the EC50 (CfEcR-DEF mutant I51M) was 4.13 µM. For the same compound, the Emax (CfEcR-DEF mutant I51M) was 27%, the EC50 (CfEcR-DEF mutant M125S) was 1.4 µM and the EC50 (CfEcR-DEF mutant L234W) was over 33 µM. For the same compound, the Emax (CfEcR-DEF mutant L234W) was 6%, the EC50 (CfEcR-DEF mutant M125I) was 3.02 µM and the Emax (CfEcR-DEF mutant M125I) was 45%. It also gave an EC50 (CfEcR-DEF mutant M125V) of 3.79 µM, an Emax (CfEcR-DEF mutant M125V) of 47% and an EC50 (CfEcR-DEF mutant L223R) of 2 µM. The Emax (CfEcR-DEF mutant L223R) was 25%.

In the case of CCc1c(C(=O)NN(C(=O)c2cc(OC)c(C)c(OC)c2)C(C=C(C)C(C)(C)C)C(C)(C)C)ccc2c1OCCO2 (centres unmarked) [RG-115898, 3,5-dimethoxy-4-methyl-benzoic acid N-(1-tert-butyl-3,4,4-trimethyl-pent-2-enyl)-N′-(5-ethyl-2,3-dihydro-benzo[1,4]dioxine-6-carbonyl)-hydrazide], the EC50 (CfEcR-DEF mutant T52G) is reported as over 33 µM, the Emax (CfEcR-DEF mutant T52G) is reported as 1% and the EC50 (CfEcR-DEF mutant T52R) is reported as over 33 µM. The Emax (CfEcR-DEF mutant T52R) was 0%, the EC50 (CfEcR-DEF mutant M125G) was 0.08 µM and the EC50 (CfEcR-DEF mutant M219Y) was over 33 µM. The Emax (CfEcR-DEF mutant M219Y) was 1%, the EC50 (CfEcR-DEF mutant F48K) was over 33 µM and the Emax (CfEcR-DEF mutant F48K) was 8%. For the same compound, the Emax (CfEcR-DEF mutant L223K) was 18%, the EC50 (CfEcR-DEF mutant L132E) was 2.15 µM and the Emax (CfEcR-DEF mutant L132E) was 34%. It also gave an EC50 (CfEcR-DEF mutant T52Q) of 20 µM, an Emax (CfEcR-DEF mutant T52Q) of 8% and an EC50 (CfEcR-DEF mutant W238L) of over 33 µM. The Emax (CfEcR-DEF mutant W238L) was 0%, the EC50 (CfEcR-DEF mutant M219K) was over 33 µM and the Emax (CfEcR-DEF mutant M219K) was 0%. For the same compound, the EC50 (CfEcR-DEF mutant W238M) was over 33 µM, the Emax (CfEcR-DEF mutant W238M) was 3% and the EC50 (CfEcR-DEF mutant F48R) was over 33 µM. The Emax (CfEcR-DEF mutant F48R) was 0%, the EC50 (CfEcR-DEF mutant M219A) was 1 µM and the Emax (CfEcR-DEF mutant M219A) was 5%. It also gave an EC50 (CfEcR-DEF mutant T52M) of over 33 µM, an Emax (CfEcR-DEF mutant T52M) of 1% and an EC50 (CfEcR-DEF mutant M219W) of over 33 µM. It also gave an Emax (CfEcR-DEF mutant M219W) of 0%, an EC50 (CfEcR-DEF mutant L223Y) of 0.33 µM and an Emax (CfEcR-DEF mutant L223Y) of 20%. For the same compound, the EC50 (CfEcR-DEF mutant L234R) was over 33 µM, the Emax (CfEcR-DEF mutant L234R) was 58% and the EC50 (CfEcR-DEF mutant M125N) was 0.94 µM. The EC50 (CfEcR-DEF mutant T52W) was 0.18 µM, the Emax (CfEcR-DEF mutant T52W; NIH3T3, 40 h, read-out: Rel Max FI) was 424% and the EC50 (CfEcR-DEF mutant I51M) was over 33 µM. For the same compound, the Emax (CfEcR-DEF mutant I51M) was 2%, the EC50 (CfEcR-DEF mutant M125S) was 0.33 µM and the EC50 (CfEcR-DEF mutant L234W) was over 33 µM. The Emax (CfEcR-DEF mutant L234W) was 2%, the EC50 (CfEcR-DEF mutant M125I) was over 33 µM and the Emax (CfEcR-DEF mutant M125I) was 0%. The EC50 (CfEcR-DEF mutant M125V) was over 33 µM, the Emax (CfEcR-DEF mutant M125V) was 1% and the EC50 (CfEcR-DEF mutant L223R) was over 33 µM. For the same compound, the Emax (CfEcR-DEF mutant L223R) was 1%.
